The target of data set [1] is T1, Prothrombin (Bos taurus, UniProt P00735). Kind of data set: Inhibitory activity against thrombin.
For a further data set, the target named is T2, Serine protease 1 (Bos taurus, UniProt P00760).
T2 sequence (P00760 whole entry): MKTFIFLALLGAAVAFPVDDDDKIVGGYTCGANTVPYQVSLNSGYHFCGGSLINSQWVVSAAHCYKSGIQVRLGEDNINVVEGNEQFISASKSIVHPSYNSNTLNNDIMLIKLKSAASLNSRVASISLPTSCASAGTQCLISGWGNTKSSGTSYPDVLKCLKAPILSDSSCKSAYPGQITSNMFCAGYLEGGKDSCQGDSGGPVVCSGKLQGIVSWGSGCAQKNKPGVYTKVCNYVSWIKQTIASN
Kind of data set: Inhibitory activity against trypsin.

Data set [2] concerns the target T3, Urokinase-type plasminogen activator (Homo sapiens, UniProt P00749). Kind of data set: Inhibitory activity against UK.
The nature of data set [3]: Concentration for doubling of partial thromboplastin time. The class given is functional, Homo sapiens.
For a further data set, the target named is Plasminogen (Homo sapiens, UniProt P00747). Kind of data set: Inhibitory activity against Plasmin.
Data set [4] deals with T4, Plasma kallikrein (Homo sapiens, UniProt P03952). Description: Inhibitory activity against Kallikrein (PK).
The nature of data set [5]: Concentration for doubling of prothrombin time. The class given is functional, Homo sapiens.
Data set [6] has as its target T1, Prothrombin.
A short description of data set [7]: Concentration for doubling of thrombin time. The class given is functional, Homo sapiens.
For a further data set, the target named is T5, Coagulation factor XII (Homo sapiens, UniProt P00748).
T5 sequence (P00748 whole entry): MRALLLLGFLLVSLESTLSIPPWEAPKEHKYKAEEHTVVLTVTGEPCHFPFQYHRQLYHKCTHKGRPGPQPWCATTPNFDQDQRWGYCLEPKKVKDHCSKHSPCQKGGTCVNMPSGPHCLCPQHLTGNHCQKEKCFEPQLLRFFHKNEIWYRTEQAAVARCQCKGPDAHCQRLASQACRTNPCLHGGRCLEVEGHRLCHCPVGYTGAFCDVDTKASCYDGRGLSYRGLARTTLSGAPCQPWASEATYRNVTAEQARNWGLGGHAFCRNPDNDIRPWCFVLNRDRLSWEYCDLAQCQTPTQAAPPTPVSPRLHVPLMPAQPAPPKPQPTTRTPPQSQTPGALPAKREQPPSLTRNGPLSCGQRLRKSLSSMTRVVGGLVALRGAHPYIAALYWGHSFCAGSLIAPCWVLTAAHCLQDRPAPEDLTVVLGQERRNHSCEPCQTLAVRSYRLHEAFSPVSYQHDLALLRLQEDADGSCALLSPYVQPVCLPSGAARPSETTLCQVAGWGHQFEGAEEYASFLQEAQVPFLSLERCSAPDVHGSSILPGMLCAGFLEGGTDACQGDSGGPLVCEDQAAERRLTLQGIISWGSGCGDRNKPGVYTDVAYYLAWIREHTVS
Kind of data set: Inhibitory activity against Coagulation factor XII.

Another data set deals with Coagulation factor X (Bos taurus, UniProt P00743). Kind of data set: Inhibitory activity against coagulation factor X.
The target of data set [8] is Vitamin K-dependent protein C (Homo sapiens, UniProt P04070). Kind of data set: Inhibitory activity against Activated protein C.
Data set [9] has as its target Tissue-type plasminogen activator (Homo sapiens, UniProt P00750). Description: Inhibitory activity against single-chain tissue-type plasminogen activator (sc-tissue plasminogen activator).
Data set [10] has as its target T3, Urokinase-type plasminogen activator. Description: Inhibitory activity against urokinase (UK ).
In data set [11] the target is T4, Plasma kallikrein. Kind of data set: Inhibitory activity against plasma kallikrein (PK.). The data set is classed as cell-free.
A short description of data set [12]: 1 mg/kg was administered intravenously in anesthetized rats and the concentration in plasma was determined after 45 minutes. Conditions: rat, iv.
Data set [13] can be described thus: 50 mg/kg was administered orally in anesthetized rats and the concentration in plasma was determined after 120 minutes. Conditions: rat, po.
Data set [14] in a line: 1 mg/kg was administered intravenously in anesthetized rats and the concentration in plasma was determined after 30 minutes. Conditions: rat, iv.
Data set [15] can be described thus: 1 mg/kg was administered intravenously in anesthetized rats and the concentration in plasma was determined after 180 minutes. The note with it: rat, iv.
Data set [16] is described as follows: 1 mg/kg was administered intravenously in anesthetized rats and the concentration in plasma was determined after 90 minutes. Conditions: rat, iv.
Data set [17] is described as follows: 1 mg/kg was administered intravenously in anesthetized rats and the concentration in plasma was determined after 2 minutes. The note with it: rat, iv.
Data set [18] is described as follows: 50 mg/kg was administered orally in anesthetized rats and the concentration in plasma was determined after 15 minutes. Conditions: rat, po, read-out: Activity. The data set is classed as ADME, organism-based.
Data set [19] is described as follows: 1 mg/kg was administered intravenously in anesthetized rats and the concentration in plasma was determined after 240 minutes. The note with it: rat, iv.
Data set [20] in a line: 1 mg/kg was administered intravenously in anesthetized rats and the concentration in plasma was determined after 15 minutes. Conditions: rat, iv.
Data set [21] in a line: 50 mg/kg was administered orally in anesthetized rats and the concentration in plasma was determined after 5 minutes. The data set is classed as ADME, organism-based. Conditions: rat, po, read-out: Activity.
Data set [22] in a line: 50 mg/kg was administered orally in anesthetized rats and the concentration in plasma was determined after 180 minutes. Conditions: rat, po.
The nature of data set [23]: 50 mg/kg was administered orally in anesthetized rats and the concentration in plasma was determined after 90 minutes. The data set is classed as ADME, organism-based. The note with it: rat, po, read-out: Activity.
The nature of data set [24]: 50 mg/kg was administered orally in anesthetized rats and the concentration in plasma was determined after 60 minutes. The note with it: rat, po.
A short description of data set [25]: 50 mg/kg was administered orally in anesthetized rats and the concentration in plasma was determined after 30 minutes. Conditions: rat, po.
A short description of data set [26]: 50 mg/kg was administered orally in anesthetized rats and the concentration in plasma was determined after 45 minutes. The class given is ADME, organism-based. The note with it: rat, po, read-out: Activity.
Data set [27] can be described thus: 1 mg/kg was administered intravenously in anesthetized rats and the concentration in plasma was determined after 120 minutes. The note with it: rat, iv.
Data set [28] can be described thus: 1 mg/kg was administered intravenously in anesthetized rats and the concentration in plasma was determined after 5 minutes. Conditions: rat, iv.
Data set [29] in a line: 1 mg/kg was administered intravenously in anesthetized rats and the concentration in plasma was determined after 60 minutes. Conditions: rat, iv.

Some results are limits rather than exact numbers.

As usually defined, the Ki is a dissociation constant, usually derived from enzyme kinetics or from competition with a known ligand. In general, IC50 refers to the midpoint of a concentration-inhibition curve.

T4 sequence (P03952 20-390 limits assumed): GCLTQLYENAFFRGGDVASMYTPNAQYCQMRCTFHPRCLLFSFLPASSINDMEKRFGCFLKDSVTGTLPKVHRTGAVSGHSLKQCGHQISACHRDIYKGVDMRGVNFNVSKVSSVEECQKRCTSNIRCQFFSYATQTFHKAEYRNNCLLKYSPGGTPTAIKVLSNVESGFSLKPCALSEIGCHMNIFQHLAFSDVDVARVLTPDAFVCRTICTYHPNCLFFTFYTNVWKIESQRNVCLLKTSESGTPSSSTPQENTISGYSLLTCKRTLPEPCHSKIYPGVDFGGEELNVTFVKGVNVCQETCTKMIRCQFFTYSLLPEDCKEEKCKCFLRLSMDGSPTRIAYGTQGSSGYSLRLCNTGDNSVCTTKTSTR
T4 sequence (P03952 391-638 limits assumed): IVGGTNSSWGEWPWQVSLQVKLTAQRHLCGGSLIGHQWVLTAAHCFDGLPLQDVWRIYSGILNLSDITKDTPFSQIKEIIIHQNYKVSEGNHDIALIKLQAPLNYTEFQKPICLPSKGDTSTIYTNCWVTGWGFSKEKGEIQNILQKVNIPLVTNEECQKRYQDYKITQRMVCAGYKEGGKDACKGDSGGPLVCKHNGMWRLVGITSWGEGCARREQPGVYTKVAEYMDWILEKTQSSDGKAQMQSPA
Chain of Coagulation factor X (P00743 41-180 limits assumed): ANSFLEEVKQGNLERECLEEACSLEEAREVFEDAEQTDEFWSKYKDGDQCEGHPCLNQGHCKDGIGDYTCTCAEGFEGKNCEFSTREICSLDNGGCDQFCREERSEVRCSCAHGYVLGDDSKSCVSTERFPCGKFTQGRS
Chain of Coagulation factor X (P00743 234-492 limits assumed): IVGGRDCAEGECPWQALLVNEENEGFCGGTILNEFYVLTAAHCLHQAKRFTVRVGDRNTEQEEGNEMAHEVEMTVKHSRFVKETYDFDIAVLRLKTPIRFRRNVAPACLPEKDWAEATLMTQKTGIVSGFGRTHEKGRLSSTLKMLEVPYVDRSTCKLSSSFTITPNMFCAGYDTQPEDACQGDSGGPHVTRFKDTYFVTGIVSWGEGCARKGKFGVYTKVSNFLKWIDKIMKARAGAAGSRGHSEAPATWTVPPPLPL
Chain of Vitamin K-dependent protein C (P04070 43-197 limits assumed): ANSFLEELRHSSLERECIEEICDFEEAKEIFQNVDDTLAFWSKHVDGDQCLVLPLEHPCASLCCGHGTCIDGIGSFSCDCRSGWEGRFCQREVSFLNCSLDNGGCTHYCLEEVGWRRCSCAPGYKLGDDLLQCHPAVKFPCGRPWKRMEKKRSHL
Chain of Vitamin K-dependent protein C (P04070 212-461 limits assumed): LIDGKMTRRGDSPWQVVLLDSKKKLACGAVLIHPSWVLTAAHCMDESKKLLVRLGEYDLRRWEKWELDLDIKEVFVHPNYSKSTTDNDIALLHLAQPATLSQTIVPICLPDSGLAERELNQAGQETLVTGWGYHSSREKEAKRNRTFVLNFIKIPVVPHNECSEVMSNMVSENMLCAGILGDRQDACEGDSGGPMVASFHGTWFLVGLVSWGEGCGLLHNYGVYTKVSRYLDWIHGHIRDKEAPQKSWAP
Chain of Plasminogen (P00747 97-580 limits assumed): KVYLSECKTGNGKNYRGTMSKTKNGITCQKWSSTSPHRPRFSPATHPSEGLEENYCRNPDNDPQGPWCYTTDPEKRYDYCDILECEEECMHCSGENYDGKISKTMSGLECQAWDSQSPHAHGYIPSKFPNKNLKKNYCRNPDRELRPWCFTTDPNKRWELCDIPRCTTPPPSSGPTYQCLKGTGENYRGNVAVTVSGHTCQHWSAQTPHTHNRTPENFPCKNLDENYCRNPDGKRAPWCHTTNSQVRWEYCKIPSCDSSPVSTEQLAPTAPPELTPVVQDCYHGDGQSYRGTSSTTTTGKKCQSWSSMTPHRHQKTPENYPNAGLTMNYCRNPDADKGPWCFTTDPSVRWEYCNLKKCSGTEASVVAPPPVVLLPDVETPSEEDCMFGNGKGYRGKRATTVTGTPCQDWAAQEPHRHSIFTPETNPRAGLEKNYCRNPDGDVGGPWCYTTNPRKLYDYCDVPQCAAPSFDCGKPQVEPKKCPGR
Chain of Plasminogen (P00747 581-810 limits assumed): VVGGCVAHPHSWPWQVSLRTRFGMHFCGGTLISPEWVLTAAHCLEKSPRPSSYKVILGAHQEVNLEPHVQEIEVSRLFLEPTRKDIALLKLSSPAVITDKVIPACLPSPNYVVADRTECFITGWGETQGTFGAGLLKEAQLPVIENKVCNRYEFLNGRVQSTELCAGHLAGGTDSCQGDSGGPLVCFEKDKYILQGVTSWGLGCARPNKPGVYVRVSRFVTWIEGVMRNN
Chain of Tissue-type plasminogen activator (P00750 whole entry): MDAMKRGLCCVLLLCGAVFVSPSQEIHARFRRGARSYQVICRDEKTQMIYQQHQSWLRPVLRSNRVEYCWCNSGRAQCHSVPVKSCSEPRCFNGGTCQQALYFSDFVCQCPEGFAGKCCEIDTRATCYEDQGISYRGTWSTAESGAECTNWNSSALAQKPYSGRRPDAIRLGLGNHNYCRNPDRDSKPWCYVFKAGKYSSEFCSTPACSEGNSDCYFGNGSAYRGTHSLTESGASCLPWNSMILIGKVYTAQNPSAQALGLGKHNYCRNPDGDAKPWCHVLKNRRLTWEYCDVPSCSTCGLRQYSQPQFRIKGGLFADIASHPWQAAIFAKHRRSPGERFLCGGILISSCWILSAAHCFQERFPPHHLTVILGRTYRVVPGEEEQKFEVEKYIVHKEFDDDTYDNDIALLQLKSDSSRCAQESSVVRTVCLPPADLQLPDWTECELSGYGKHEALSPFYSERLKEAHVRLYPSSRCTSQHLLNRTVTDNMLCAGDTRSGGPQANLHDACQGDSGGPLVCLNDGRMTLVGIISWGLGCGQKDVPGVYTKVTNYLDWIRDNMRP

Regarding `CC1CCN(C(=O)[C@@H](Cc2cccc(C(=N)N)c2)NS(=O)(=O)c2ccc3ccccc3c2)CC1`, at Prothrombin [1], the Ki was found to be 0.0025 µM.

`N=C(N)c1cccc(C[C@@H](NS(=O)(=O)c2ccc3ccccc3c2)C(=O)N2CCN(CCO)CC2)c1`: the Ki on Serine protease 1 came out at 0.6 µM; in [2], 140 µM; on Plasminogen, 21 µM; on Plasma kallikrein [4], 27 µM; on Prothrombin [6] it was 0.037 µM; at Coagulation factor XII, 400 µM. The Ki at Coagulation factor X came out at 22 µM; in [8], 39 µM; in data set [9], 180 µM. Further, the values for the IC50 in [3], in data set [5] and in [7] were 0.56 µM, 1.1 µM and 0.14 µM, respectively.

For the compound `CS(=O)(=O)N1CCN(C(=O)[C@@H](Cc2cccc(C(=N)N)c2)NS(=O)(=O)c2ccc3ccccc3c2)CC1`, the Ki at Serine protease 1 stood at 0.067 µM; in [2], 28 µM; on Plasminogen, 9 µM; at Plasma kallikrein [4], 58 µM; on Coagulation factor XII, 52 µM; at Coagulation factor X, 19 µM. Also, the Ki turned out to be 15.2 µM in data set [8] and 190 µM in data set [9]. Besides, the results for the IC50 in [3], in data set [5] and in [7] were 0.26 µM, 0.39 µM and 0.037 µM, respectively.

Turning to `CN(C)C(=O)N1CCN(C(=O)[C@@H](Cc2cccc(C(=N)N)c2)NS(=O)(=O)c2ccc3ccccc3c2)CC1`, the Ki at Serine protease 1 was determined as 0.097 µM; in data set [2], 28 µM; at Plasminogen, 4.9 µM; at Plasma kallikrein [4], 7.3 µM; on Prothrombin [6], 0.004 µM; at Coagulation factor XII, 61 µM. In addition, the Ki was 16 µM on Coagulation factor X, 13.5 µM in data set [8] and > 1000 µM in data set [9]. In addition, the IC50 in [3] was 0.39 µM; in data set [5], 0.72 µM; in [7] it was 0.042 µM.

`CN1CCN(C(=O)[C@@H](Cc2cccc(C(=N)N)c2)NS(=O)(=O)c2ccc3ccccc3c2)CC1`: the inhibition constant (Ki) stood at 0.47 µM at Serine protease 1; 30 µM at Plasminogen; 0.016 µM on Prothrombin [6]; 280 µM at Coagulation factor XII; 19 µM on Coagulation factor X; 94 µM in [8]. Besides, the Ki was 110 µM in [10], 35 µM on Plasma kallikrein [11] and > 1000 µM in data set [9]. The 50% inhibitory concentration (IC50) in data set [3] was determined as 1.2 µM; in [5], 1.8 µM; in data set [7] it was 0.22 µM.

Turning to `N=C(N)c1cccc(C[C@@H](NS(=O)(=O)c2ccc3ccccc3c2)C(=O)N2CCN(C=O)CC2)c1`, the Ki on Serine protease 1 was determined as 0.073 µM; in [2] it was 34 µM; at Plasminogen it was 3.3 µM; at Plasma kallikrein [4], 3.3 µM; at Prothrombin [6], 0.023 µM; on Coagulation factor XII, 53 µM. Besides, the Ki at Coagulation factor X amounted to 9.7 µM; in data set [8] it was 10.3 µM; in data set [9], 110 µM. For the same compound, the results for the IC50 in [3], in data set [5] and in [7] were 0.35 µM, 0.7 µM and 0.063 µM, respectively.

Turning to `CC(=O)N1CCN(C(=O)[C@@H](Cc2cccc(C(=N)N)c2)NS(=O)(=O)c2ccc3ccccc3c2)CC1`, the concentration at 0.75 h in [12] was found to be 170 ng/mL; in [26], 410 ng/mL. Besides, the concentration at 2 h in data set [13] stood at 260 ng/mL; in [27] it was 90 ng/mL. Also, the concentration at 0.5 h was found to be 270 ng/mL in data set [14] and 450 ng/mL in data set [25]. In addition, the results for the concentration at 3 h in data set [15] and in data set [22] were < 40 ng/mL and 300 ng/mL, respectively. Besides, the Ki was 0.044 µM at Serine protease 1; 32 µM in [2]; 5.2 µM on Plasminogen; 15 µM on Plasma kallikrein [4]; 200 µM at Coagulation factor XII; 34 µM at Coagulation factor X. Besides, the figures for the Ki in data set [8] and in [9] were 12 µM and 410 µM, respectively. Besides, the values for the concentration at 1.5 h in data set [16] and in data set [23] were 100 ng/mL and 270 ng/mL, respectively. In data set [17], this compound came in with a concentration at 2 min of 3550 ng/mL. Also, the results for the IC50 in data set [3], in data set [5] and in data set [7] were 0.28 µM, 0.76 µM and 0.062 µM, respectively. Moreover, the concentration at 0.25 h in [18] is 410 ng/mL; in [20], 610 ng/mL. Further, in data set [19], the concentration at 4 h is < 40 ng/mL. Besides, the values for the concentration at 5 min in [21] and in data set [28] were 230 ng/mL and 2080 ng/mL, respectively. The concentration at 1 h turned out to be 380 ng/mL in data set [24] and 130 ng/mL in data set [29].

These data come from ChEMBL document CHEMBL1130155, “Synthesis and structure-activity relationships of potent thrombin inhibitors: piperazides of 3-amidinophenylalanine” (J Med Chem, 1997).
